Test results taken from US11752125B2, “Anti-neuroinflammatory and protective compounds in Achillea fragrantissima” (THE STATE OF ISRAEL MINISTRY OF AGRICULTURE & RURAL …, priority 2013, dated 2023).

Legend:
[1] = tested on: COX-2; test: COX-2 transcripts in LPS-stimulated microglial cells (real-time PCR); type: cell-based, rat; conditions: 20 μg/mL; LPS 4.5 ng/mL, 5 h
Description: (§1) RNA was extracted by the RNeasy Plus Mini Kit (Qiagen, Hilden, Germany) according to the manufacturer's instructions. Genomic DNA was removed from the RNA samples by using 50 units of RNase-free DNaseI at 37° C. for 1 h. RNA ([…]) was converted to cDNA using the Thermo Scientific Verso cDNA kit (Thermo Fisher Scientific Inc) following the manufacturer's protocol. The cDNA was used for quantitative real-time PCR amplification with TaqMan chemistry (Applied Biosystems) using Rat MMP9, TNFα, IL1β, iNOS, COX2 pre-designed TaqMan Gene Expression Assay from Applied Biosystems (Rn00579162_m1, Rn00562055_m1, Rn00580432_m1, Rn00561646_m1, Rn01483828_m1, respectively). […] All results from three technical replicates were normalized relative to α-Tubulin (Rn01532518.g1) and GAPDH (Rn01775763.g1), respectively, and expressed as relative expression ratios calculated (relative quantity, RQ) using the comparative method and based on the data that were created by the ABI PRISM 7700 Sequence Detection System (using version 1.6 software).
(§2) Procedure 23. Measurement of IL-1Beta, TNFalpha, iNOS, COX-2 and MMP-9 Transcripts in LPS-Activated Microglial Cells by Quantitative Real-Time PCR Analysis. • 1. […]
(§3) Microglial cells were treated with 20 μg/mL of achillolide A, followed by stimulation with LPS (4.5 ng/mL). […] The results are expressed as percentages relative to LPS-stimulated cells. […]

[2] = tested on: LPS-activated splenocytes; test: Cytokine secretion from LPS-activated splenocytes (ELISA); type: cell-based, mouse; conditions: LPS 5 μg/mL; 24 h (IL-2) or 48 hr
Description: 1. Sacrifice Balb/c mice by decapitation. 2. Remove spleens from mice, pool, and squeeze to single cell suspension 3. Lyse red blood cells using lysis buffer, and wash cells several times. 4. Plate splenocytes (5×10^6 cells/well) on a 24-well tissue culture plate, in DMEM containing 10% FBS, 2 mM glutamine, 100 U/ml penicillin and 100 micrograms/mL streptomycin; 5. Treat cells with freshly diluted AcA of the invention; 6. Activate […] with lipopolysaccharide (LPS, 5 micrograms/mL); 7. Collect conditioned media for the measurement of cytokine levels; IL-2, after 24 h; IFNγ, TNF-α, IL-10, IL-12 and IL-6 after 48 hr. 8. Measure the levels of cytokines by ELISA; Ten naive Balb/c mice were sacrificed by decapitation. […] Spleens were removed from mice, pooled and squeezed to single cell suspension. Red blood cells were lysed using lysis buffer, cells were washed several times, and were plated (5×10^6 cells/well/ml) on a 24-well tissue culture plate. Cells were then stimulated with LPS (5 μg/mL) in the presence or absence of achillolide A. Conditioned media of the cells were collected for analysis: IL-2, after 24 h; IFNγ, TNF-α, IL-10, IL-12 and IL-6 after 48 hr. Cytokine levels were measured by ELISA in supernatants collected at the indicated time points. Data represent the mean±SEM from two different experiments performed in duplicates. […]

[3] = tested on: TNFα; test: TNFα transcripts in LPS-stimulated microglial cells (real-time PCR); type: cell-based, rat; conditions: 20 μg/mL; LPS 4.5 ng/mL, 5 h
Description: as §1, §2, §3

[4] = tested on: primary astrocytes; conditions: Nones et al., 2012; cited from earlier work

SMILES | effect on LPS-induced COX-2 transcript levels [1] | effect on cytokine secretion (IL-2, IFNγ, TNF-α, IL-10, IL-12, IL-6) [2] | effect on LPS-induced TNFα transcript levels [3] | nontoxic concentration in primary astrocytes [4]
C=C1CCC2=C(CO)C(=O)O[C@H]2/C=C(\C)[C@H](OC(C)=O)CC1=O [achillolide A] | significantly inhibited | Downregulates | significantly inhibited | –
O=c1c(O)c(-c2ccc(O)c(O)c2)oc2cc(O)cc(O)c12 [quercetin, 3,3′,4′,5,7-Pentahydroxyflavone, reference compound] | – | – | – | up to 100 μM
